Results reported in patent US10189836B2, “Therapeutic compounds, compositions and methods of use thereof” (Genentech, Inc., priority 2015, dated 2019).
Where two headings read alike, the source gives them in different places.

Tests used:
[1] = target: isolated recombinant JAK1 kinase domain (Homo sapiens (Human), UniProt P23458); assay: JAK1 enzyme assay (Caliper LabChip, Ki); format: biochemical
[2] = target: isolated recombinant JAK2 kinase domain (Homo sapiens (Human), UniProt O60674); assay: JAK2 enzyme assay (Caliper LabChip, Ki); format: biochemical
Sequence of isolated recombinant JAK2 kinase domain (O60674 849-1124): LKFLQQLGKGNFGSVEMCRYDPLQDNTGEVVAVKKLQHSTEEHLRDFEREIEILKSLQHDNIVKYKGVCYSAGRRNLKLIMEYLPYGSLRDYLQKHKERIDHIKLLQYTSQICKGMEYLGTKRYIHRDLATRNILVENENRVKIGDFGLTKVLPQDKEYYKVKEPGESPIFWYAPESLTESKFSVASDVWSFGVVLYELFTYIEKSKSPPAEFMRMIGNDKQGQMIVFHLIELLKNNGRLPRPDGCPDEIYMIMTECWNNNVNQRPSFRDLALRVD

[3] = isolated recombinant JAK1 kinase domain, 1.5 nM enzyme, ATP 25 μM
[4] = isolated recombinant JAK2 kinase domain, 0.2 nM enzyme, ATP 25 μM

Sequence of isolated recombinant JAK1 kinase domain (P23458 875-1153): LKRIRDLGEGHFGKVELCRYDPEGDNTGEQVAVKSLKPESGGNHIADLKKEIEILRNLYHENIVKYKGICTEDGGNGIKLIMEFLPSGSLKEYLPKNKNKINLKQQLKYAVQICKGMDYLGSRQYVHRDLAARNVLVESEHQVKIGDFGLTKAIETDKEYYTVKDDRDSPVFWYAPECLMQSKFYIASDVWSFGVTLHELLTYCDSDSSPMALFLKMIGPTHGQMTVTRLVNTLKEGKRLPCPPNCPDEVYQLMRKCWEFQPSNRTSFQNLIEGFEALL

Compound `CN1CCN(C(=O)Cn2cc(Nc3nc4c(N5C[C@H]6CC[C@@H](C5)[C@H]6OCc5ccccc5)cccn4n3)cn2)CC1` [Example 1, 2-[4-[[8-[(1S,5R)-8-benzyloxy-3-azabicyclo[3.2.1]octan-3-yl]-[1,2,4]triazolo[1,5-a]pyridin-2-yl]amino]pyrazol-1-yl]-1-(4-methylpiperazin-1-yl)ethanone] has a Ki [1, 3] of 0.2 nM and a Ki [2, 4] of 0.6 nM.

With `CN1CCN(C(=O)Cn2cc(Nc3nc4c(N5CC6CCC(C5)N6C(=O)N5CC(C(F)(F)F)C5)cccn4n3)cn2)CC1` [Example 2, 1-(4-methylpiperazin-1-yl)-2-[4-[[8-[8-[3-(trifluoromethyl)azetidine-1-carbonyl]-3,8-diazabicyclo[3.2.1]octan-3-yl]-[1,2,4]triazolo[1,5-a]pyridin-2-yl]amino]pyrazol-1-yl]ethanone] the Ki [1, 3] was 0.5 nM and the Ki [2, 4] was 0.4 nM.

`CN1CCN(C(=O)Cn2cc(Nc3nc4c(N5CC6CCC(C5)N6C(=O)C5CSC5)cccn4n3)cn2)CC1` [Example 3, 1-(4-methylpiperazin-1-yl)-2-[4-[[8-[8-(thietane-3-carbonyl)-3,8-diazabicyclo[3.2.1]octan-3-yl]-[1,2,4]triazolo[1,5-a]pyridin-2-yl]amino]pyrazol-1-yl]ethanone] was tested, and the Ki [1, 3] was 0.5 nM and the Ki [2, 4] was 0.6 nM.

`CN1CCN(C(=O)Cn2cc(Nc3nc4c(N5CC6CCCC(C5)N6C(=O)CCC(F)(F)F)cccn4n3)cn2)CC1` [Example 4, 4,4,4-trifluoro-1-[3-[2-[[1-[2-(4-methylpiperazin-1-yl)-2-oxo-ethyl]pyrazol-4-yl]amino]-[1,2,4]triazolo[1,5-a]pyridin-8-yl]-3,9-diazabicyclo[3.3.1]nonan-9-yl]butan-1-one] was tested, and the Ki [1, 3] was 0.5 nM and the Ki [2, 4] was 0.8 nM.

Work on `CN1CCN(C(=O)Cn2cc(Nc3nc4c(N5CC6CCC(C5)N6C(=O)CCC(F)(F)F)cccn4n3)cn2)CC1` [Example 5, 4,4,4-trifluoro-1-[3-[2-[[1-[2-(4-methylpiperazin-1-yl)-2-oxo-ethyl]pyrazol-4-yl]amino]-[1,2,4]triazolo[1,5-a]pyridin-8-yl]-3,8-diazabicyclo[3.2.1]octan-8-yl]butan-1-one] yielded a Ki [1, 3] of 0.6 nM and a Ki [2, 4] of 1.2 nM.

In the case of `CN1CCN(C(=O)Cn2cc(Nc3nc4c(N5CC6CCC(C5)N6C(=O)[C@H]5C[C@H](C(F)(F)F)C5)cccn4n3)cn2)CC1` [Example 6, formic acid; 1-(4-methylpiperazin-1-yl)-2-[4-[[8-[8-[3-(trifluoromethyl)cyclobutanecarbonyl]-3,8-diazabicyclo[3.2.1]octan-3-yl]-[1,2,4]triazolo[1,5-a]pyridin-2-yl]amino]pyrazol-1-yl]ethanone], the Ki [1, 3] is reported as 0.7 nM and the Ki [2, 4] is reported as 0.6 nM.

Compound `CN1CCN(C(=O)Cn2cc(Nc3nc4c(C5=CC6CCC(C5)N6C(=O)OCC(F)(F)F)cccn4n3)cn2)CC1` (centres unmarked) [Example 7, 2,2,2-trifluoroethyl 3-[2-[[1-[2-(4-methylpiperazin-1-yl)-2-oxo-ethyl]pyrazol-4-yl]amino]-[1,2,4]triazolo[1,5-a]pyridin-8-yl]-8-azabicyclo[3.2.1]oct-3-ene-8-carboxylate] has a Ki [1] of 0.7 nM and a Ki [2] of 0.7 nM.

With `CN1CCN(C(=O)Cn2cc(Nc3nc4c(N5CC6CCC(C5)N6C(=O)CC5CC(F)(F)C5)cccn4n3)cn2)CC1` [Example 8, 2-(3,3-difluorocyclobutyl)-1-[3-[2-[[1-[2-(4-methylpiperazin-1-yl)-2-oxo-ethyl]pyrazol-4-yl]amino]-[1,2,4]triazolo[1,5-a]pyridin-8-yl]-3,8-diazabicyclo[3.2.1]octan-8-yl]ethanone] the Ki [1, 3] was 0.6 nM and the Ki [2, 4] was 0.7 nM.

For `CN1CCN(C(=O)Cn2cc(Nc3nc4c(N5CC6CCC(C5)N6C(=O)CC5CSCCS5)cccn4n3)cn2)CC1` (centres unmarked) [Example 9, 2-(1,4-dithian-2-yl)-1-[3-[2-[[1-[2-(4-methylpiperazin-1-yl)-2-oxo-ethyl]pyrazol-4-yl]amino]-[1,2,4]triazolo[1,5-a]pyridin-8-yl]-3,8-diazabicyclo[3.2.1]octan-8-yl]ethanone], the Ki [1, 3] was 0.6 nM and the Ki [2, 4] was 0.9 nM.

`O=C(Cn1cc(Nc2nc3c(N4CC5CCC(C4)N5C(=O)CCC(F)(F)F)cccn3n2)cn1)N1CCN(C2CCOCC2)CC1` [Example 10, 4,4,4-trifluoro-1-[3-[2-[[1-[2-oxo-2-(4-tetrahydropyran-4-ylpiperazin-1-yl)ethyl]pyrazol-4-yl]amino]-[1,2,4]triazolo[1,5-a]pyridin-8-yl]-3,8-diazabicyclo[3.2.1]octan-8-yl]butan-1-one] was tested, and the Ki [1, 3] was 0.7 nM and the Ki [2, 4] was 1.2 nM.

With `CN(C1CCN(C(=O)Cn2cc(Nc3nc4c(N5CC6CCC(C5)N6C(=O)CCC(F)(F)F)cccn4n3)cn2)CC1)C1COC1` [Example 11, 4,4,4-trifluoro-1-[3-[2-[[1-[2-[4-[methyl(oxetan-3-yl)amino]-1-piperidyl]-2-oxo-ethyl]pyrazol-4-yl]amino]-[1,2,4]triazolo[1,5-a]pyridin-8-yl]-3,8-diazabicyclo[3.2.1]octan-8-yl]butan-1-one] the Ki [1, 3] was 0.7 nM and the Ki [2, 4] was 1.4 nM.

`CN1CCN(C(=O)Cn2cc(Nc3nc4c(N5CC6CCC(C5)N6C(=O)CC(F)(F)F)cccn4n3)cn2)CC1` [Example 12, 3,3,3-trifluoro-1-[3-[2-[[1-[2-(4-methylpiperazin-1-yl)-2-oxo-ethyl]pyrazol-4-yl]amino]-[1,2,4]triazolo[1,5-a]pyridin-8-yl]-3,8-diazabicyclo[3.2.1]octan-8-yl]propan-1-one] showed a Ki [1, 3] of 0.7 nM and a Ki [2, 4] of 1.7 nM.

Compound `CN1CCN(C(=O)Cn2cc(Nc3nc4c(C5=CC6CCC(C5)N6C(=O)CCC(F)(F)F)cccn4n3)cn2)CC1` (centres unmarked) [Example 13, 4,4,4-trifluoro-1-[3-[2-[[1-[2-(4-methylpiperazin-1-yl)-2-oxo-ethyl]pyrazol-4-yl]amino]-[1,2,4]triazolo[1,5-a]pyridin-8-yl]-8-azabicyclo[3.2.1]oct-3-en-8-yl]butan-1-one] has a Ki [1, 3] of 0.9 nM.

In the case of `CN1CCN(C(=O)Cn2cc(Nc3nc4c(C5=CC6CCC(C5)N6C(=O)CCC(F)(F)F)cccn4n3)cn2)CC1` (centres unmarked) [Example 18, 4,4,4-trifluoro-1-[3-[2-[[1-[2-(4-methylpiperazin-1-yl)-2-oxo-ethyl]pyrazol-4-yl]amino]-[1,2,4]triazolo[1,5-a]pyridin-8-yl]-8-azabicyclo[3.2.1]oct-3-en-8-yl]butan-1-one], the Ki [1, 3] is reported as 1.5 nM.

`CN1CCN(C(=O)Cn2cc(Nc3nc4c(N5CC6CCC(C5)N6C(=O)C5CC6C(C5)C6(F)F)cccn4n3)cn2)CC1` (centres unmarked) [Example 57, 2-[4-[[8-[8-(6,6-difluorobicyclo[3.1.0]hexane-3-carbonyl)-3,8-diazabicyclo[3.2.1]octan-3-yl]-[1,2,4]triazolo[1,5-a]pyridin-2-yl]amino]pyrazol-1-yl]-1-(4-methylpiperazin-1-yl)ethanone] gave a Ki [1, 3] of 4.8 nM.

In the case of `CN1CCN(C(=O)Cn2cc(Nc3nc4c(N5CC6CCC(C5)N6C(=O)c5ccccc5)cccn4n3)cn2)CC1` [Example 70, 2-[4-[[8-(8-benzoyl-3,8-diazabicyclo[3.2.1]octan-3-yl)-[1,2,4]triazolo[1,5-a]pyridin-2-yl]amino]pyrazol-1-yl]-1-(4-methylpiperazin-1-yl)ethanone], the Ki [1, 3] is reported as 4.2 nM.

`CN1CCN(C(=O)Cn2cc(Nc3nc4c(N5CC6CCC(C5)N6CCCC(F)(F)F)cccn4n3)cn2)CC1` [Example 73, 1-(4-methylpiperazin-1-yl)-2-[4-[[8-[8-(4,4,4-trifluorobutyl)-3,8-diazabicyclo[3.2.1]octan-3-yl]-[1,2,4]triazolo[1,5-a]pyridin-2-yl]amino]pyrazol-1-yl]ethanone] was tested, and the Ki [1, 3] was 8.8 nM.

Work on `CN1CCN(C(=O)Cn2cc(Nc3nc4c(N5CC6COCC(C5)N6C(=O)CCC(F)(F)F)cccn4n3)cn2)CC1` [Example 130, 4,4,4-trifluoro-1-[7-[2-[[1-[2-(4-methylpiperazin-1-yl)-2-oxo-ethyl]pyrazol-4-yl]amino]-[1,2,4]triazolo[1,5-a]pyridin-8-yl]-3-oxa-7,9-diazabicyclo[3.3.1]nonan-9-yl]butan-1-one] yielded a Ki [2, 4] of 26.6 nM.

`CN1CCN(C(=O)Cn2cc(Nc3nc4c(N5C[C@H]6CC[C@@H](C5)[C@H]6OCc5ccncc5)cccn4n3)cn2)CC1` [Example 144, 1-(4-methylpiperazin-1-yl)-2-[4-[[8-[rac-(1S,5R)-8-(4-pyridylmethoxy)-3 - azabicyclo[3.2.1]octan-3-yl]-[1,2,4]triazolo[1,5-a]pyridin-2-yl]amino]pyrazol-1-yl]ethanone] showed a Ki [1, 3] of 0.8 nM.

`CN1CCN(C(=O)Cn2cc(Nc3nc4c(N5C[C@H]6CC[C@@H](C5)[C@H]6NCCC(F)(F)F)cccn4n3)cn2)CC1` [Example 145, 1-(4-methylpiperazin-1-yl)-2-(4-((8-((1R,5 S,8r)-8-((3,3,3-trifluoropropyl)amino)-3-azabicyclo[3.2.1]octan-3-yl)-[1,2,4]triazolo[1,5-a]pyridin-2-yl)amino)-1H-pyrazol-1-yl)ethanone] gave a Ki [1, 3] of 1.3 nM.

For `Cc1ccc(CO[C@H]2[C@@H]3CC[C@H]2CN(c2cccn4nc(Nc5cnn(CC(=O)N6CCN(C)CC6)c5)nc24)C3)cn1` [Example 151, 1-(4-methylpiperazin-1-yl)-2-[4-[[8-[rac-(1S,5R)-8-[(6-methyl-3-pyridyl)methoxy]-3-azabicyclo[3.2.1]octan-3-yl]-[1,2,4]triazolo[1,5-a]pyridin-2-yl]amino]pyrazol-1-yl]ethanone], the Ki [1, 3] was 0.6 nM.

`CN1CCN(C(=O)Cn2cc(Nc3nc4c(N5CC6CCC(C5)N6C(=O)C5(C#N)CCCC5)cccn4n3)cn2)CC1` [Example 155, 1-[3-[2-[[1-[2-(4-methylpiperazin-1-yl)-2-oxo-ethyl]pyrazol-4-yl]amino]-[1,2,4]triazolo[1,5-a]pyridin-8-yl]-3,8-diazabicyclo[3.2.1]octane-8-carbonyl]cyclopentane-carbonitrile] was tested, and the Ki [2, 4] was 21 nM.

In the case of `CN1CCN(C(=O)Cn2cc(Nc3nc4c(N5C[C@H]6CC[C@@H](C5)[C@@H]6OCc5ccncc5)cccn4n3)cn2)CC1` [Example 189, 1-(4-methylpiperazin-1-yl)-2-(4-((8-((1R,5 S,8s)-8-(pyridin-4-ylmethoxy)-3-azabicyclo[3.2.1]octan-3-yl)-[1,2,4]triazolo[1,5-a]pyridin-2-yl)amino)-1H-pyrazol-1-yl)ethanone], the Ki [1, 3] is reported as 0.5 nM.
